# Measured values as given in patent EP1561465A2, “Methods of use of fluoroquinolone compounds against bacteria” (LG Life Sciences, Ltd., priority 1999, dated 2001).
# Read-outs that look alike come from different tables or passages of the source.
# Tests used:
# Type in all cases: cell-based
# Enterococcus faecium [1] = assay: MIC by NCCLS broth microdilution, 1100 Japanese clinical isolates 1997-1998; settings: for MIC: Enterococcus faecium
# Moraxella catarrhalis [2] = assay: MIC by agar dilution (NCCLS), 411 isolates Buenos Aires 1998-99; settings: Moraxella catarrhalis (n = 59)
# Yersinia enterocolitica = assay: MIC by agar dilution (NCCLS M7-A4), 288 enteropathogenic isolates, gemifloxacin and 15 other antimicrobials; settings: Yersinia enterocolitica N= 22
# Enterococcus faecium [3] = assay: MIC by agar macrodilution (NCCLS), 373 Gram positive isolates, Athens 1998
# Shigella spp. = assay: MIC by agar dilution (NCCLS M7-A4), 288 enteropathogenic isolates, eight quinolones; settings: Shigella spp. (n = 21)
# Moraxella catarrhalis [4] = assay: MIC by two-fold serial agar dilution, Sensitivity Disk agar-N (Kitasato isolates); settings: Moraxella catarrhalis (22)
# Citrobacter freundii = assay: MIC by NCCLS broth microdilution, 1100 Japanese clinical isolates 1997-1998
# Enterobacter cloacae = assay: as above; settings: Enterobacter cloacae (n=40)
# Morganella morganii = assay: as above; settings: Morganella morganii (n=40)
# Moraxella catarrhalis [5] = assay: MIC by NCCLS reference broth microdilution, 450 respiratory tract pathogens
# Campylobacter jejuni = assay: MIC by agar dilution (NCCLS M7-A4), 5% sheep blood, microaerophilic 48 h; settings: Campylobacter jejuni (n=91)
# Enterococcus faecalis = assay: MIC by NCCLS broth microdilution, 1100 Japanese clinical isolates 1997-1998; settings: for MIC50 / MIC90: Enterococcus faecalis; for MIC90: read-out: MIC90
# [6] = Enterococcus faecalis ciprofloxacin resistant (n=15)
# [7] = Enterococcus faecalis ciprofloxacin susceptible (n=24)
compound,measurement,setting,value
"N[C@@H]1[C@H]2CN(c3nc4c(cc3F)c(=O)c(C(=O)O)cn4-c3ccc(F)cc3F)C[C@@H]12 [Trovafloxacin, trovafloxacin]",MIC50,Enterococcus faecium [1]; Enterococcus faecium (n=39),16 µg/mL
same,MIC90,Enterococcus faecium [1]; Enterococcus faecium (n=39),64 µg/mL
same,MIC Range,Enterococcus faecium [1]; Enterococcus faecium (n=39),0.25 to 64 µg/mL
same,MIC,"Enterococcus faecium [1]; Enterococcus faecium (vanA) vancomycin resistant, strain TMS1",8 µg/mL
same,MIC,"Enterococcus faecium [1]; Enterococcus faecium (vanA) vancomycin resistant, strain TMS2",1 µg/mL
same,MIC,"Enterococcus faecium [1]; Enterococcus faecium (vanA) vancomycin resistant, strain TMS3",8 µg/mL
same,MIC,"Enterococcus faecium [1]; Enterococcus faecium (vanA) vancomycin resistant, strain TMS4",8 µg/mL
same,MIC,"Enterococcus faecium [1]; Enterococcus faecium (vanA) vancomycin resistant, strain TMS5",2 µg/mL
same,MIC,"Enterococcus faecium [1]; Enterococcus laecium (van B) vancomycin resistant, strain TMS6",32 µg/mL
same,MIC,"Enterococcus faecium [1]; Enterococcus laecium (van B) vancomycin resistant, strain TMS7",32 µg/mL
same,MIC Range,Moraxella catarrhalis [2],≤0.004 to 0.03 µg/mL
same,MIC90,Moraxella catarrhalis [2]; read-out: MIC90,0.016 µg/mL
same,MIC,"Yersinia enterocolitica; 24 h, read-out: MIC (mg/L) Range",0.015 to 0.25 mg/L
same,MIC,Yersinia enterocolitica; read-out: MIC (mg/L) 50%,0.06 mg/L
same,MIC,Yersinia enterocolitica; read-out: MIC (mg/L) 90%,0.06 mg/L
same,MIC distribution (µg/ml) 0.03,Enterococcus faecium [3],0
same,MIC distribution (µg/ml) 0.06,Enterococcus faecium [3],0
same,MIC distribution (µg/ml) 0.125,Enterococcus faecium [3],0
same,MIC distribution (µg/ml) 0.25,Enterococcus faecium [3],1
same,MIC distribution (µg/ml) 0.5,Enterococcus faecium [3],6
same,MIC distribution (µg/ml) 1,Enterococcus faecium [3],2
same,MIC distribution (µg/ml) 2,Enterococcus faecium [3],0
same,MIC distribution (µg/ml) 4,Enterococcus faecium [3],0
same,MIC distribution (µg/ml) 8,Enterococcus faecium [3],1
same,MIC distribution (µg/ml) 16,Enterococcus faecium [3],0
same,MIC distribution (µg/ml) ≤0.015,Enterococcus faecium [3],0
same,MIC distribution (µg/ml) ≥32,Enterococcus faecium [3],4
same,MIC50,"Enterococcus faecium [3]; Enterococcus faecium, n = 14 isolates, read-out: MIC50",0.5 µg/mL
same,MIC90,"Enterococcus faecium [3]; Enterococcus faecium, n = 14 isolates, read-out: MIC90",≥ 32 µg/mL
same,% Susceptible,Shigella spp.,100%
same,MIC50,Shigella spp.,≤ 0.015 µg/mL
same,MIC90,Shigella spp.,≤ 0.015 µg/mL
same,MIC Range,Shigella spp.,≤0.015 µg/mL
same,MIC50,Moraxella catarrhalis [4],0.016 µg/mL
same,MIC90,Moraxella catarrhalis [4],0.031 µg/mL
same,MIC Range,Moraxella catarrhalis [4],0.016 to 0.031 µg/mL
same,MIC50,Citrobacter freundii; Citrobacter freundii,0.125 µg/mL
same,MIC90,Citrobacter freundii; Citrobacter freundii (n=39),2 µg/mL
same,MIC Range,Citrobacter freundii; Citrobacter freundii (n=39),≤0.008 to 4 µg/mL
same,MIC50,Enterobacter cloacae,0.032 µg/mL
same,MIC90,Enterobacter cloacae,1 µg/mL
same,MIC Range,Enterobacter cloacae,≤0.008 to 2 µg/mL
same,MIC Range,Morganella morganii,0.063 to 32 µg/mL
same,MIC50,Morganella morganii; read-out: MIC50,0.25 µg/mL
same,MIC90,Morganella morganii; read-out: MIC90,1 µg/mL
same,MIC,Moraxella catarrhalis [5]; Moraxella catarrhalis (n = 50),0.00375 to 0.06 µg/mL
same,MIC50,Moraxella catarrhalis [5]; Moraxella catarrhalis (n = 50),0.015 µg/mL
same,MIC90,Moraxella catarrhalis [5]; Moraxella catarrhalis (n = 50),0.06 µg/mL
same,MIC,Moraxella catarrhalis [5]; β-lactamase negative (n = 13),0.00375 to 0.06 µg/mL
same,MIC50,Moraxella catarrhalis [5]; β-lactamase negative (n = 13),0.0075 µg/mL
same,MIC90,Moraxella catarrhalis [5]; β-lactamase negative (n = 13),0.036 µg/mL
same,MIC,Moraxella catarrhalis [5]; β-lactamase positive (n = 37),0.00375 to 0.06 µg/mL
same,MIC50,Moraxella catarrhalis [5]; β-lactamase positive (n = 37),0.015 µg/mL
same,MIC90,Moraxella catarrhalis [5]; β-lactamase positive (n = 37),0.03 µg/mL
same,% Susceptible,Campylobacter jejuni,31.86%
same,MIC50,Campylobacter jejuni,8 µg/mL
same,MIC90,Campylobacter jejuni,8 µg/mL
same,MIC Range,Campylobacter jejuni,≤0.015 to 32 µg/mL
same,MIC Range,Enterococcus faecalis; [6],0.25 to 16 µg/mL
same,MIC Range,Enterococcus faecalis; [7],0.25 to 0.5 µg/mL
same,MIC50,Enterococcus faecalis; [6],4 µg/mL
same,MIC90,Enterococcus faecalis; [6],16 µg/mL
same,MIC50,Enterococcus faecalis; [7],0.25 µg/mL
same,MIC90,Enterococcus faecalis; [7],0.25 µg/mL
